Patent publication US10448639B2, “Fungicidal pyrazoles” (FMC CORPORATION, priority 2009, dated 2019)
Read-outs that look alike come from different tables or passages of the source.

Key:
[1] = test system: Alternaria solani; test: Test C: tomato early blight, preventive spray on tomato seedlings, visual disease rating; conditions: for Test C rating (% disease control): tomato early blight, 100 = 100% disease control; for pest or weed control at 200 µg/mL: Alternaria solani, in Solanum lycopersicum, 168 h
[2] = test system: Erysiphe graminis f sp. tritici; test: Test J: wheat powdery mildew, preventive spray on wheat seedlings, visual disease rating; conditions: for Test J rating (% disease control): wheat powdery mildew, 100 = 100% disease control; for pest or weed control at 200 µg/mL: Blumeria graminis, in Triticum aestivum, 192 h
[3] = test system: Puccinia recondita f. sp. tritici; test: Test I: wheat leaf rust, preventive spray on wheat seedlings, visual disease rating; conditions: for Test I rating (% disease control): wheat leaf rust, 100 = 100% disease control; for pest or weed control at 200 µg/mL: 192 h
[4] = test system: Septoria tritici; test: Test G: wheat leaf blotch, preventive spray on wheat seedlings, visual disease rating; conditions: for Test G rating (% disease control): wheat leaf blotch, 100 = 100% disease control; for pest or weed control at 200 µg/mL: Zymoseptoria tritici, in Triticum aestivum, 504 h
[5] = test system: Septoria nodorum; test: Test F: Septoria glume blotch, preventive spray on wheat seedlings, visual disease rating; conditions: for Test F rating (% disease control): 100 = 100% disease control; for pest or weed control at 200 µg/mL: Parastagonospora nodorum, in Triticum aestivum, 192 h
[6] = test system: Botrytis cinerea; test: Test B: tomato Botrytis, preventive spray on tomato seedlings, visual disease rating; conditions: for Test B rating (% disease control): tomato Botrytis, 100 = 100% disease control; for pest or weed control at 200 µg/mL: Botrytis cinerea, in Solanum lycopersicum, 120 h
Description: General protocol for preparing test suspensions for Tests A-J: the test compounds were first dissolved in acetone in an amount equal to 3% of the final volume and then suspended at the desired concentration (in ppm) in acetone and purified water (50/50 mix by volume) containing 250 ppm of the surfactant Trem® 014 (polyhydric alcohol esters). The resulting test suspensions were then used in Tests A-J. Spraying a 200 ppm test suspension to the point of run-off on the test plants was the equivalent of a rate of 500 g/ha. Unless otherwise indicated, the rating values indicate a 200 ppm test suspension was used. (An asterisk “*” next to the rating value indicates a 40 ppm test suspension was used.)
The test suspension was sprayed to the point of run-off on tomato seedlings. The following day the seedlings were inoculated with a spore suspension of Botrytis cinerea (the causal agent of tomato Botrytis) and incubated in saturated atmosphere at 20° C. for 48 h, and then moved to a growth chamber at 24° C. for 3 additional days, after which time visual disease ratings were made.

[7] = test system: Puccinia recondita f. sp. tritici; test: Test H: wheat leaf rust, curative spray on inoculated wheat seedlings, visual disease rating; conditions: for Test H rating (% disease control): wheat leaf rust, 100 = 100% disease control; for pest or weed control at 200 µg/mL: 144 h
[8] = 0 = no control relative to controls
[9] = preventive, 0 = no control relative to controls
[10] = Septoria glume blotch, 0 = no control relative to controls
[11] = curative, 0 = no control relative to controls
[12] = read-out: Test C rating (% disease control)
[13] = read-out: Test J rating (% disease control)
[14] = read-out: Test I rating (% disease control)
[15] = read-out: Test G rating (% disease control)
[16] = read-out: Test F rating (% disease control)
[17] = read-out: Test B rating (% disease control)
[18] = read-out: Test H rating (% disease control)
[19] = preventive spray, 0 = no control
[20] = Septoria glume blotch on wheat, preventive spray, 0 = no control

Row | SMILES | Test C rating (% disease control) [1, 8] | Test J rating (% disease control) [2, 8] | Test I rating (% disease control) [3, 9] | Test G rating (% disease control) [4, 8] | Test F rating (% disease control) [5, 10] | Test B rating (% disease control) [6, 8] | Test H rating (% disease control) [7, 11] | Test C rating (% disease control) [1, 19] | Test J rating (% disease control) [2, 19] | Test I rating (% disease control) [3, 19] | Test G rating (% disease control) [4, 19] | Test F rating (% disease control) [5, 20] | Test B rating (% disease control) [6, 19] | Test H rating (% disease control) ([7]; curative spray, 0 = no control) | also measured
1 | Cc1nn(C)c(Oc2cccc(C#N)c2)c1-c1c(F)cc(F)cc1F [compound 222] | 99% | 100% | 99% | 100% | 0% | 99% | 88% |  |  |  |  |  |  |  | 
2 | Cc1nn(C)c(Nc2c(F)cc(F)cc2F)c1-c1ccc(F)cc1Cl [Compound 18, 4-(2-chloro-4-fluorophenyl)-1,3-dimethyl-N-(2,4,6-trifluorophenyl)-1H-pyrazol-5-amine] |  |  |  |  |  |  |  |  |  |  |  |  |  |  | pest or weed control at 200 µg/mL [1, 12]: 100%; pest or weed control at 200 µg/mL [2, 13]: 100%; pest or weed control at 200 µg/mL [3, 14]: 100%; pest or weed control at 200 µg/mL [4, 15]: 95%; pest or weed control at 200 µg/mL [5, 16]: 99%; pest or weed control at 200 µg/mL [6, 17]: 99%; pest or weed control at 200 µg/mL [7, 18]: 99%
3 | Cc1nn(C)c(Oc2c(F)cc([N+](=O)[O-])cc2F)c1-c1ccc(F)cc1Cl [compound 121] |  |  |  |  |  |  |  | 86% | 97% | 100% | 99% | 82% | 100% | 83% | 
4 | Cc1nn(C)c(Nc2ccc(F)cc2Cl)c1-c1ccc(F)cc1Cl [Compound 175, N,4-bis(2-chloro-4-fluorophenyl)-1,3-dimethyl-1H-pyrazol-5-amine] |  |  |  |  |  |  |  |  |  |  |  |  |  |  | pest or weed control at 200 µg/mL [1, 12]: 99%; pest or weed control at 200 µg/mL [2, 13]: 100%; pest or weed control at 200 µg/mL [3, 14]: 99%; pest or weed control at 200 µg/mL [4, 15]: 96%; pest or weed control at 200 µg/mL [5, 16]: 82%; pest or weed control at 200 µg/mL [6, 17]: 100%; pest or weed control at 200 µg/mL [7, 18]: 93%
5 | COc1cc(F)c(Nc2c(-c3ccccc3C(F)(F)F)c(C)nn2C)c(F)c1 [compound 240] | 99% | 100% | 99% | 99% | 0% | 100% | 0% |  |  |  |  |  |  |  | 
6 | Cc1nn(C)c(Nc2c(F)cc(F)cc2Cl)c1-c1ccc(F)cc1F [Compound 343, N-(2-chloro-4,6-difluorophenyl)-4-(2,4-difluorophenyl)-1,3-dimethyl-1H-pyrazol-5-amine] |  |  |  |  |  |  |  |  |  |  |  |  |  |  | pest or weed control at 200 µg/mL ([1]; read-out: Test C disease control rating): 100%; pest or weed control at 200 µg/mL ([2]; read-out: Test J disease control rating): 100%; pest or weed control at 200 µg/mL ([3]; read-out: Test I disease control rating): 100%; pest or weed control at 200 µg/mL ([4]; read-out: Test G disease control rating): 100%; pest or weed control at 200 µg/mL ([5]; read-out: Test F disease control rating): 97%; pest or weed control at 200 µg/mL ([6]; read-out: Test B disease control rating): 100%; pest or weed control at 200 µg/mL ([7]; read-out: Test H disease control rating): 91%
7 | Cc1cc(Oc2c(-c3c(F)cc(F)cc3F)c(C)nn2C)ccc1Br [compound 165] | 0% | 99% | 0% | 52% | 0% | 0% | 8% |  |  |  |  |  |  |  | 
8 | Cc1nn(C)c(Nc2ccc(F)cc2F)c1-c1c(F)cc(C#N)cc1F [compound 106] |  |  |  |  |  |  |  | 99% | 100% | 99% | 100% | 90% | 100% | 82% | 
9 | Cc1nn(C)c(Nc2cc(F)c(F)cc2F)c1-c1c(F)cc(C#N)cc1F [compound 138] |  |  |  |  |  |  |  | 96% | 98% | 100% | 99% | 84% | 99% | 38% | 
10 | Cc1nn(C)c(Nc2ccc(Cl)cc2)c1-c1ccc(F)cc1Cl [compound 19] |  |  |  |  |  |  |  | 85% | 98% | 92% | 96% | 0% | 100% | 0% | 
11 | Cc1nn(C)c(Nc2ccc(F)cc2F)c1-c1c(F)cc(OS(=O)(=O)C(F)(F)F)cc1F [compound 105] |  |  |  |  |  |  |  | 0% | 72% | 0% | 73% | 0% | 23% | 9% | 
12 | Cc1nn(C)c(Oc2ccc(Br)c(C#N)c2)c1-c1c(F)cc(F)cc1F [compound 225] | 0% | 98% | 79% | 99% | 0% | 65% | 0% |  |  |  |  |  |  |  | 
13 | COc1ccc(Oc2c(-c3ccc(C)cc3)c(C)nn2C)c(Cl)c1 [compound 55] |  |  |  |  |  |  |  | 0% | 73% | 41% | 98% | 0% | 6% | 0% | 
14 | Cn1nc(C2CC2)c(-c2ccc(F)cc2Cl)c1Nc1ccc(F)cc1F [compound 108] |  |  |  |  |  |  |  | 0% | 97% | 16% | 98% | 0% | 97% | 0% | 
15 | Cc1nn(C)c(Oc2c(F)cc(C#N)cc2F)c1-c1ccc(Cl)nc1 [compound 86] |  |  |  |  |  |  |  | 0% | 0% | 0% | 48% | 0% | 0% | 0% | 
16 | COc1cc(F)c(-c2c(C)nn(C)c2Nc2ccc(OC)nc2)c(F)c1 [compound 95] |  |  |  |  |  |  |  | 16% | 0% | 0% | 97% | 0% | 99% | 0% | 
17 | COc1ccc(Nc2c(-c3ccc(F)cc3F)c(C)nn2C)c(F)c1 [compound 228] | 99% | 99% | 80% | 99% | 0% | 99% | 0% |  |  |  |  |  |  |  | 
18 | Cc1nn(C)c(Nc2cccc(Cl)c2Cl)c1-c1c(F)cc(C#N)cc1F [compound 147] |  |  |  |  |  |  |  | 88% | 92% | 98% | 100% | 100% | 99% | 0% | 
19 | Cc1nn(C)c(Oc2ccc(C#N)cc2Cl)c1-c1c(F)cc(F)cc1F [compound 98] |  |  |  |  |  |  |  | 17% | 99% | 99% | 100% | 69% | 100% | 26% | 
20 | Cc1nn(C)c(Nc2c(F)cc(C#N)cc2F)c1-c1c(F)cccc1Cl [compound 192] | 100% | 99% | 99% | 100% | 73% | 97% | 0% |  |  |  |  |  |  |  | 
21 | COc1cc(F)c(-c2c(C)nn(C)c2Oc2cccc(C#N)c2)c(F)c1 [compound 223] | 9% | 100% | 100% | 100% | 99% | 96% | 0% |  |  |  |  |  |  |  | 
